Test results as given in patent US9409882B2, “Pyridine derivatives” (Hoffmann-La Roche Inc., priority 2012, dated 2016).

Tests used:
human Cathepsin S = human Cathepsin S (Homo sapiens (Human), UniProt P25774); test: Cathepsin enzyme inhibition assay (fluorogenic peptide substrate), human Cat S; type: biochemical; settings: human Cat S 1 nM, substrate Z-Val-Val-Arg-AMC 20 μM, pH 6.5
Method: (§1) Cathepsin Enzyme Inhibition Assay
(§2) Enzyme activity is measured by observing the increase in fluorescence intensity caused by cleavage of a peptide substrate containing a fluorophore whose emission is quenched in the intact peptide.
(§3) Assay buffer: 100 mM potassium phosphate pH 6.5, EDTA-Na 5 mM, Triton X-100 0.001%, DTT 5 mM.
(§4) Enzymes (all at 1 nM): human and mouse Cathepsin S, Cat K, Cat B, Cat L.
(§5) Substrate (20 μM): Z-Val-Val-Arg-AMC, except for Cat K which uses Z-Leu-Arg-AMC (both from Bachem).
(§6) AMC=7-Amino-4-Methyl-Coumarin.
(§7) Excitation 360 nm, Emission 465 nm.
(§8) Enzyme is added to the substance dilutions in 96-well microtitre plates and the reaction is started with substrate. […] IC50 are calculated by standard methods.
(§9) Inhibition of human Cat S, mouse Cat S, human Cat K, human Cat B, human Cat L and mouse Cat L have been measured separately.

human Cat L = human Cat L (Homo sapiens (Human), UniProt P07711); test: Cathepsin enzyme inhibition assay (fluorogenic peptide substrate), human Cat L; type: biochemical; settings: human Cat L 1 nM, substrate Z-Val-Val-Arg-AMC 20 μM, pH 6.5
human Cat L, sequence (P07711 114-333): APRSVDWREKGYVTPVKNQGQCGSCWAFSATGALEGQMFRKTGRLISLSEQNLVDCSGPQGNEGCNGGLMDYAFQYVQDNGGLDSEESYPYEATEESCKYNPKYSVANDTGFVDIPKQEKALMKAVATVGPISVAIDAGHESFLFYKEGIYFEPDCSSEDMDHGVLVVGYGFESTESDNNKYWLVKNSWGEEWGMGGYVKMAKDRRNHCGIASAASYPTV
Method: as §1, §2, §3, §4, §5, §6, §7, §8, §9

human Cathepsin S, sequence (P25774 115-331): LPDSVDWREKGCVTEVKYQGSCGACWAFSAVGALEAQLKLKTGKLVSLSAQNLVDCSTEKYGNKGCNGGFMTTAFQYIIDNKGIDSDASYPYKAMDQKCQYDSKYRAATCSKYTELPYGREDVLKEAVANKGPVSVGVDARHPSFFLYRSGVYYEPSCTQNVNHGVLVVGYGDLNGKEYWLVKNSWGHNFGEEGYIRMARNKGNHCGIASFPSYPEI

Row | IC50 (human Cathepsin S) [µM] | IC50 (human Cat L) [µM] | SMILES
1 | 0.264 | 5.65 | N#CC1(NC(=O)[C@@H]2C[C@@H](Sc3ccc(Cl)cn3)CN2C(=O)C2(c3ncc(Cl)cc3F)CC2)CC1 [Example 17, (2S,4R)-1-[1-(5-Chloro-3-fluoro-pyridin-2-yl)-cyclopropanecarbonyl]-4-(5-chloro-pyridin-2-ylsulfanyl)-pyrrolidine-2-carboxylic acid (1-cyano-cyclopropyl)-amide]
2 | 0.000322 | 0.0642 | Cc1ncccc1-c1ccc(S(=O)(=O)[C@@H]2C[C@@H](C(=O)NC3(C#N)CC3)N(C(=O)C3(c4ncc(Cl)cc4F)CC3)C2)c(Cl)c1 [Example 34, (2S,4R)-1-[1-(5-Chloro-3-fluoro-pyridin-2-yl)-cyclopropanecarbonyl]-4-[2-chloro-4-(2-methyl-pyridin-3-yl)-benzenesulfonyl]-pyrrolidine-2-carboxylic acid (1-cyano-cyclopropyl)-amide]
3 | 0.0111 | 1.68 | N#CC1(NC(=O)[C@@H]2C[C@H](S(=O)(=O)c3ccc(F)cc3Cl)CN2C(=O)C2(c3ncc(Cl)cc3F)CC2)CC1 [Example 15, (2S,4S)-4-(2-Chloro-4-fluoro-benzenesulfonyl)-1-[1-(5-chloro-3-fluoro-pyridin-2-yl)-cyclopropanecarbonyl]-pyrrolidine-2-carboxylic acid (1-cyano-cyclopropyl)-amide]
4 | 0.0007 | 0.031 | N#CC1(NC(=O)[C@@H]2C[C@@H](S(=O)(=O)c3ccccc3F)CN2C(=O)C2(c3ncc(Cl)cc3F)CC2)CC1 [Example 42, (2S,4R)-1-[1-(5-Chloro-3-fluoro-pyridin-2-yl)-cyclopropanecarbonyl]-4-(2-fluoro-benzenesulfonyl)-pyrrolidine-2-carboxylic acid (1-cyano-cyclopropyl)-amide]
5 | 0.003 | 1.97 | N#CC1(NC(=O)[C@@H]2C[C@@H](S(=O)(=O)c3ccc(Cl)cn3)CN2C(=O)C2(c3ncc(Cl)cc3F)CC2)CC1 [Example 22, (2S,4R)-1-[1-(5-Chloro-3-fluoro-pyridin-2-yl)-cyclopropanecarbonyl]-4-(5-chloropyridine-2-sulfonyl)-pyrrolidine-2-carboxylic acid (1-cyano-cyclopropyl)-amide]
6 | 0.000686 | 0.112 | N#CC1(NC(=O)[C@@H]2C[C@@H](S(=O)(=O)c3ccc(-c4ccnc(Cl)c4)cc3Cl)CN2C(=O)C2(c3ncc(Cl)cc3F)CC2)CC1 [Example 32, (2S,4R)-4-[2-Chloro-4-(2-chloro-pyridin-4-yl)-benzenesulfonyl]-1-[1-(5-chloro-3-fluoro-pyridin-2-yl)-cyclopropanecarbonyl]-pyrrolidine-2-carboxylic acid (1-cyano-cyclopropyl)-amide]
7 | 0.000492 | 0.34 | N#CC1(NC(=O)[C@@H]2C[C@@H](S(=O)(=O)c3ccccc3Cl)CN2C(=O)C2(c3ccc(Cl)cn3)CC2)CC1 [Example 2, (2S,4R)-4-(2-Chloro-benzenesulfonyl)-1-[1-(5-chloro-pyridin-2-yl)-cyclopropanecarbonyl]-pyrrolidine-2-carboxylic acid (1-cyano-cyclopropyl)-amide]
8 | 0.017 | 0.0906 | N#CC1(NC(=O)[C@@H]2C[C@@H](S(=O)(=O)c3ccccc3-n3cccn3)CN2C(=O)C2(c3ncc(I)cc3F)CC2)CC1 [Example 43, (2S,4R)-1-[1-(3-Fluoro-5-iodo-pyridin-2-yl)-cyclopropanecarbonyl]-4-(2-pyrazol-1-yl-benzenesulfonyl)-pyrrolidine-2-carboxylic acid (1-cyano-cyclopropyl)-amide]
